Test results taken from patent US12435144B2, “Use of combination of anti-PD-1 antibody and VEGFR inhibitor in preparation of drug for treating cancers” (Suzhou Suncadia Biopharmaceuticals Co., Ltd., priority 2016, dated 2025).

Legend:
[1] = tested on: mouse colon cancer cell MC-38 (PD-L1) xenograft; assay: MC38 (PD-L1) xenograft in human PD-1 transgenic C57 mice; type: in vivo; conditions: anti-PD-1 antibody 3 mg/kg ip Q2D*7, apatinib 200 mg/kg po QD*14
Procedure: • 1. Study purposes: Human PD-1 transgenic mice were used as test animals. The effects of anti-PD-1 antibody in combination with apartinib on human PD-1 expressed in transgenic C57 mice were evaluated, and the transgenic mice bear mouse colon cancer cell MC-38 (PD-L1) xenograft transfected with PD-L1 gene. • 2. Test antibodies and compounds: The anti-PD-1 antibody was prepared according to the method disclosed in WO2015085847 in which the corresponding code of the antibody is H005-1, and the sequences of the heavy and light chain are shown in SEQ ID NO: 7 and SEQ ID NO: 8 in the present invention. Lot number: P1512, 200 mg/vial, formulated into 20 mg/ml before use. Apatinib mesylate was prepared according to the method disclosed in CN101676267A, lot number: 668160401; molecular weight: 493.58; purity: 99.60%. • 3. Experimental animals: Human PD-1 transgenic C57 mice, specific-pathogen-free (SPF), with different body weights, 50% male and 50% female, were purchased from IsisInnovation Limited, UK. • 4. Drug preparation: Anti-PD-1 antibody (3 mg/kg): anti-PD-1 antibody stock solution (20 mg/ml) was adjusted to a concentration of 0.3 mg/ml with phosphate buffered saline (PBS), and the intraperitoneal injection volume was 0.2 ml/mouse. Apatinib (200 mg/kg): 400 mg apatinib was dissolved in 20 ml of 0.5% sodium carboxymethylcellulose (NaCMC), adjusted to 20 mg/ml, and was administered in 0.2 ml per mouse by gavage. […] The specific drug administration regimen is shown in Table 1. • 5.4 Determination of volume of xenograft and body weight of mice: Tumor volume and body weight were measured twice a week and data were recorded. • 5.5 Statistics: Excel 2003 statistical software was used: the mean was calculated by avg; the SD value was calculated by STDEV; the SEM value was calculated by STDEV/SQRT; the P value indicating the difference between groups is calculated by TTEST. […]

[2] = tested on: metastatic gastric/gastroesophageal junction cancer; conditions: cited from earlier work
VEGFR-2 = VEGFR-2 (Homo sapiens, UniProt P35968); conditions: little or no inhibition on other kinases; cited from earlier work
Sequence of VEGFR-2 (P35968 20-1356, species assumed): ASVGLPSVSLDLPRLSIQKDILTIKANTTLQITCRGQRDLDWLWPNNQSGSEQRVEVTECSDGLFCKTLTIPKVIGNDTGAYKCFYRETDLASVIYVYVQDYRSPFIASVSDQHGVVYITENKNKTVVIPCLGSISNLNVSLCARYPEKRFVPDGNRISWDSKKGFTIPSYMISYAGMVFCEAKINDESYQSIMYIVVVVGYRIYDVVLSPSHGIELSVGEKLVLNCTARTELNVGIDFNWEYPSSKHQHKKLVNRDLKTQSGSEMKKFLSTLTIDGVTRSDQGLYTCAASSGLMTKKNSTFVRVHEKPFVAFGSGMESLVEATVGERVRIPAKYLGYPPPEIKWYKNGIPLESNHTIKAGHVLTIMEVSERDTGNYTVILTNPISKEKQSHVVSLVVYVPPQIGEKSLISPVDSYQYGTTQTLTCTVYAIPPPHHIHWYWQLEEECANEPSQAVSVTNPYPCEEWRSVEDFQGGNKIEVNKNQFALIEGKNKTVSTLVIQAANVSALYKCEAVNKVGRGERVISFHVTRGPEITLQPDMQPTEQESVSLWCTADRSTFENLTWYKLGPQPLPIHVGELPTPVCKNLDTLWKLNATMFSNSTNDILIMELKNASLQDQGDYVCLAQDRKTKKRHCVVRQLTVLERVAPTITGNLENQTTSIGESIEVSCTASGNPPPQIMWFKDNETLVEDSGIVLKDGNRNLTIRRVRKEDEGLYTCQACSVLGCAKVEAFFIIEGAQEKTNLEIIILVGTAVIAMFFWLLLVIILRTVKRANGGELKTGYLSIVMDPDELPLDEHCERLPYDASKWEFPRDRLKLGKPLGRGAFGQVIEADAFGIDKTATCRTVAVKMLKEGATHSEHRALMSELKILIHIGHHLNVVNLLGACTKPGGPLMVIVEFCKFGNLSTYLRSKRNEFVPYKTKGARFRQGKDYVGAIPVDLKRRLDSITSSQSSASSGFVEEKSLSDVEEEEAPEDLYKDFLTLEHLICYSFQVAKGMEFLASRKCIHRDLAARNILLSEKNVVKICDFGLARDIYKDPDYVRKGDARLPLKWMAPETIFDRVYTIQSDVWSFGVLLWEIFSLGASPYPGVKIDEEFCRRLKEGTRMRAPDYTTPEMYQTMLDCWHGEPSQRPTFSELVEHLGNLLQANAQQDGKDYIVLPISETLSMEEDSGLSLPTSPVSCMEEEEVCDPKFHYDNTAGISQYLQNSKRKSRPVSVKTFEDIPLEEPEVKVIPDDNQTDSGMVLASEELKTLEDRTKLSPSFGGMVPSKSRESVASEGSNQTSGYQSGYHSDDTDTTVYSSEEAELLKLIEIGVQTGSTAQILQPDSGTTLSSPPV

[3] = apatinib alone compared with placebo

## N#CC1(c2ccc(NC(=O)c3cccnc3NCc3ccncc3)cc2)CCCC1 [apatinib, reference compound]
[1]; RTV=VT/V0, day 21
  Relative tumor volume D21: 9.27
[1]; day 21, vs HIgG control
  % Tumor inhibition rate D21: 25.67%
[1]; day 21 after initial administration, 8 mice/group
  Mean tumor volume (mm^3) D21: 1263.86 mm^3
[2]; [3]
  prolongation of median overall survival: 1.8 months
  prolongation of median progression-free survival: 0.8 months
[2]; apatinib alone
  adverse events: controllable
VEGFR-2
  selectivity for VEGFR-2 over other kinases: highly selective for VEGFR-2
